± gives the expanded uncertainty stated by the source.
Conditions: Liquid, Closed cell (Static) method

SMILES | vapor or sublimation pressure (273.27 K) [kPa] | vapor or sublimation pressure (288.25 K) [kPa] | vapor or sublimation pressure (294.23 K) [kPa] | vapor or sublimation pressure (296.23 K) [kPa] | vapor or sublimation pressure (308.21 K) [kPa] | vapor or sublimation pressure (323.19 K) [kPa]
FC(F)(F)C(F)(F)F [hexafluoroethane] | 1851 ± 3 | 2708 ± 4 |  |  |  | 
CCCC [butane] | 104 ± 1 | 177 ± 1 | 215 ± 1 | 231 ± 1 | 332 ± 1 | 498 ± 1
